# Data taken from article PMC10688023 (Journal of chemical information and modeling, 2023).
# Structures can show the parent of a compound that is named as a salt. Where two headings read alike, the source gives them in different places.
# How the values were obtained:
# [1] = target: T1, recombinant human BChE (Homo sapiens, UniProt P06276); type: biochemical; conditions: for BChE inhibitory effect (activity call): active in colorimetric assay and in fluorescence assay
# [2] = target: T1, recombinant human BChE
# [3] = target: T2, recombinant human AChE (Homo sapiens, UniProt P22303)
# [4] = target: T2, recombinant human AChE; conditions: fluorescence-based assay
# [5] = tested on: BChE; conditions: cited from earlier work
# [6] = tested on: AChE; conditions: ref [8], cited from earlier work
# T2 sequence (P22303 32-614): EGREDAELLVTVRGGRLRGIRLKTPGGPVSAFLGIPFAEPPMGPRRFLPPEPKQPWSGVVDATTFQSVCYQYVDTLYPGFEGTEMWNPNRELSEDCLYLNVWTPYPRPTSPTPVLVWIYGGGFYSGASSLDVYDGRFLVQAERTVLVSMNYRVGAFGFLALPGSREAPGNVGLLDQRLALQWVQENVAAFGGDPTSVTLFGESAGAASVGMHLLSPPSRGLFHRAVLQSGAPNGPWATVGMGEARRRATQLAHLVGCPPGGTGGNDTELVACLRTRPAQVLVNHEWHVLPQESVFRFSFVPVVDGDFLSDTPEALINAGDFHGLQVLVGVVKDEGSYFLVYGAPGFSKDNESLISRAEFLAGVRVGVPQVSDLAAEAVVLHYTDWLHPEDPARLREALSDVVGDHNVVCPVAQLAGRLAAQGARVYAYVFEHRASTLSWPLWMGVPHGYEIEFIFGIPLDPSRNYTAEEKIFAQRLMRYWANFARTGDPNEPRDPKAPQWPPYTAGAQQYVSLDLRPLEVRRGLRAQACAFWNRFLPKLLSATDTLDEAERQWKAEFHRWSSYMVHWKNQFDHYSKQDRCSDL
# T1 sequence (P06276 29-602): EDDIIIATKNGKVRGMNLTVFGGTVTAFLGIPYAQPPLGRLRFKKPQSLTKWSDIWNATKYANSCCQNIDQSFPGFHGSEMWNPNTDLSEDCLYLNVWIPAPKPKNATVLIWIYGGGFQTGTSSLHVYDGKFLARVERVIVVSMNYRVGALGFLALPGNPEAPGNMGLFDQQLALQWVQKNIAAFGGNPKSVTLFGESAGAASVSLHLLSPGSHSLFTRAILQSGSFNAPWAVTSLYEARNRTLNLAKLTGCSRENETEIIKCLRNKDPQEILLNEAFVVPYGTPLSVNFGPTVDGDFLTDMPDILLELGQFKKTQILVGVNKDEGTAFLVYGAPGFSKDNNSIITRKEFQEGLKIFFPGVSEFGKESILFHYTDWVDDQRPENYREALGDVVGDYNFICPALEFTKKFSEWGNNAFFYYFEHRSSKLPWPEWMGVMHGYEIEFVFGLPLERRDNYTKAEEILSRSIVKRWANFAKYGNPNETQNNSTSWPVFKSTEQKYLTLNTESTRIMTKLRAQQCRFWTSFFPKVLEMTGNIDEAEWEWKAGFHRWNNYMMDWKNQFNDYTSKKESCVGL
structure (smiles),measurement,setting,value
Cc1ccc(C)c(-n2cc(CN(C)CCO)c(-c3ccccc3)n2)c1 [NCGC00425816],"efficacy, BChE inhibition",[1]; fluorescence-based assay,109%±6.76
same,IC50,"[1]; read-out: IC50, BChE inhibition, fluorescence-based assay",0.08 ± 0.01 µM
same,selectivity index (SI),[2]; BChE over AChE,1250-2351
same,"efficacy, BChE inhibition",[2]; colorimetric assay,98.9%±3.21
same,IC50,"[2]; read-out: IC50, BChE inhibition, colorimetric assay",0.04 ± 0.01 µM
O=C(NCc1ccnc(N2CCCC2)c1)C1CCCN(c2cc(-n3cncn3)ncn2)C1 (stereo not drawn) [NCGC00526830],selectivity index (SI),[3]; AChE over BChE,79-164
same,"efficacy, AChE inhibition",[3]; colorimetric assay,78%±4.18
same,IC50,"[3]; read-out: IC50, AChE inhibition, colorimetric assay",0.27 µM
same,"efficacy, AChE inhibition",[4],116%±3.24
same,IC50,"[4]; read-out: IC50, AChE inhibition",0.13 ± 0.02 µM
CCN(CCCc1ccccc1)CCCc1ccccc1 [alverine citrate],BChE inhibitory effect (activity call),[1],confirmed by both assays
CN(C)[C@@H](CCOc1cccc2ccccc12)c1ccccc1 [dapoxetine HCl],BChE inhibitory effect (activity call),[1],confirmed by both assays
CCN(CC)C(C)CN1c2ccccc2Sc2ccccc21 (stereo not drawn) [ethopropazine],IC50,"[5]; read-out: IC50, BChE inhibition, ref [41], [42]",0.21 to 0.3 µM
same,selectivity for BChE over AChE,[5]; ref [39],~ 1000 fold
COc1ccc2c3c1O[C@H]1C[C@@H](O)C=C[C@@]31CCN(C)C2 [galantamine],IC50,"[6]; read-out: IC50, AChE inhibition, [40]",0.79 µM
same,selective inhibition of AChE activity versus BChE,[6],50 fold
CCN(CC)CCOC(=O)C(Cc1cccc2ccccc12)CC1CCCO1 (stereo not drawn) [nafronyl oxalate],BChE inhibitory effect (activity call),[1],confirmed by both assays
CC(CCc1ccccc1)NC(C)C(O)c1ccc(O)cc1 (stereo not drawn) [nylidrin hydrochloride],BChE inhibitory effect (activity call),[1],confirmed by both assays
